Experimental data: EP0726263A2, “Herbicidal (1,3,4)oxadiazoles and thiadiazoles” (American Cyanamid Company, priority 1995, dated 1996)

Tests used:
Format in all cases: in vivo
[1] = system: Lamium purpureum; assay: Herbicidal activity, preemergence test; settings: pre; sprayed onto soil, 800 g of active material per hectare; evaluated 3 weeks after treatment
Outline: (§1)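 First, test compound in acetone containing 0.4% Triton X-155 is diluted with water. Next, it is sprayed at 800 g/ha (900 L/ha) onto freshly seeded loam (pre) or onto seedlings (post). Finally, plants are scored 0-9 visually after 3 or 2 weeks, respectively.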

[2] = system: Galium aparine; assay: Herbicidal activity, preemergence test; settings: pre; sprayed onto soil, 800 g of active material per hectare; evaluated 3 weeks after treatment
Outline: as §1

[3] = system: Abutilon theophrasti; assay: Herbicidal activity, preemergence test; settings: pre; sprayed onto soil, 800 g of active material per hectare; evaluated 3 weeks after treatment
Outline: as §1

[4] = system: Alopecurus myosuroides; assay: Herbicidal activity, preemergence test; settings: pre; sprayed onto soil, 800 g of active material per hectare; evaluated 3 weeks after treatment
Outline: as §1

[5] = system: Viola arvensis; assay: Herbicidal activity, preemergence test; settings: pre; sprayed onto soil, 800 g of active material per hectare; evaluated 3 weeks after treatment
Outline: as §1

[6] = system: Setaria viridis; assay: Herbicidal activity, preemergence test; settings: pre; sprayed onto soil, 800 g of active material per hectare; evaluated 3 weeks after treatment
Outline: as §1

[7] = system: Triticum aestivum; assay: Herbicidal activity, preemergence test; settings: pre; sprayed onto soil, 800 g of active material per hectare; evaluated 3 weeks after treatment
Outline: as §1

[8] = system: Ipomoea hederacea; assay: Herbicidal activity, preemergence test; settings: pre; sprayed onto soil, 800 g of active material per hectare; evaluated 3 weeks after treatment
Outline: as §1

[9] = system: Echinochloa crus-galli; assay: Herbicidal activity, preemergence test; settings: pre; sprayed onto soil, 800 g of active material per hectare; evaluated 3 weeks after treatment
Outline: as §1

[10] = system: Amaranthus retroflexus; assay: Herbicidal activity, preemergence test; settings: pre; sprayed onto soil, 800 g of active material per hectare; evaluated 3 weeks after treatment
Outline: as §1

[11] = system: Stellaria media; assay: Herbicidal activity, preemergence test; settings: pre; sprayed onto soil, 800 g of active material per hectare; evaluated 3 weeks after treatment
Outline: as §1

[12] = system: Ambrosia artemisifolia; assay: Herbicidal activity, preemergence test; settings: pre; sprayed onto soil, 800 g of active material per hectare; evaluated 3 weeks after treatment
Outline: as §1

[13] = system: Veronica persica; assay: Herbicidal activity, preemergence test; settings: pre; sprayed onto soil, 800 g of active material per hectare; evaluated 3 weeks after treatment
Outline: as §1

[14] = system: Helianthus annuus; assay: Herbicidal activity, preemergence test; settings: pre; sprayed onto soil, 800 g of active material per hectare; evaluated 3 weeks after treatment
Outline: as §1

[15] = system: Zea mays; assay: Herbicidal activity, preemergence test; settings: pre; sprayed onto soil, 800 g of active material per hectare; evaluated 3 weeks after treatment
Outline: as §1

[16] = system: Glycine max; assay: Herbicidal activity, preemergence test; settings: pre; sprayed onto soil, 800 g of active material per hectare; evaluated 3 weeks after treatment
Outline: as §1

[17] = system: Gossypium hirsutum; assay: Herbicidal activity, preemergence test; settings: pre; sprayed onto soil, 800 g of active material per hectare; evaluated 3 weeks after treatment
Outline: as §1

[18] = system: Hordeum vulgare; assay: Herbicidal activity, preemergence test; settings: pre; sprayed onto soil, 800 g of active material per hectare; evaluated 3 weeks after treatment
Outline: as §1

[19] = system: Lamium purpureum; assay: Herbicidal activity, postemergence test; settings: post; sprayed onto seedling plants, 800 g of active material per hectare; evaluated 2 weeks after treatment
Outline: as §1

[20] = system: Galium aparine; assay: Herbicidal activity, postemergence test; settings: post; sprayed onto seedling plants, 800 g of active material per hectare; evaluated 2 weeks after treatment
Outline: as §1

[21] = system: Abutilon theophrasti; assay: Herbicidal activity, postemergence test; settings: post; sprayed onto seedling plants, 800 g of active material per hectare; evaluated 2 weeks after treatment
Outline: as §1

[22] = system: Alopecurus myosuroides; assay: Herbicidal activity, postemergence test; settings: post; sprayed onto seedling plants, 800 g of active material per hectare; evaluated 2 weeks after treatment
Outline: as §1

[23] = system: Viola arvensis; assay: Herbicidal activity, postemergence test; settings: post; sprayed onto seedling plants, 800 g of active material per hectare; evaluated 2 weeks after treatment
Outline: as §1

[24] = system: Setaria viridis; assay: Herbicidal activity, postemergence test; settings: post; sprayed onto seedling plants, 800 g of active material per hectare; evaluated 2 weeks after treatment
Outline: as §1

[25] = system: Triticum aestivum; assay: Herbicidal activity, postemergence test; settings: post; sprayed onto seedling plants, 800 g of active material per hectare; evaluated 2 weeks after treatment
Outline: as §1

[26] = system: Ipomoea hederacea; assay: Herbicidal activity, postemergence test; settings: post; sprayed onto seedling plants, 800 g of active material per hectare; evaluated 2 weeks after treatment
Outline: as §1

[27] = system: Echinochloa crus-galli; assay: Herbicidal activity, postemergence test; settings: post; sprayed onto seedling plants, 800 g of active material per hectare; evaluated 2 weeks after treatment
Outline: as §1

[28] = system: Amaranthus retroflexus; assay: Herbicidal activity, postemergence test; settings: post; sprayed onto seedling plants, 800 g of active material per hectare; evaluated 2 weeks after treatment
Outline: as §1

[29] = system: Stellaria media; assay: Herbicidal activity, postemergence test; settings: post; sprayed onto seedling plants, 800 g of active material per hectare; evaluated 2 weeks after treatment
Outline: as §1

[30] = system: Ambrosia artemisifolia; assay: Herbicidal activity, postemergence test; settings: post; sprayed onto seedling plants, 800 g of active material per hectare; evaluated 2 weeks after treatment
Outline: as §1

[31] = system: Veronica persica; assay: Herbicidal activity, postemergence test; settings: post; sprayed onto seedling plants, 800 g of active material per hectare; evaluated 2 weeks after treatment
Outline: as §1

[32] = system: Helianthus annuus; assay: Herbicidal activity, postemergence test; settings: post; sprayed onto seedling plants, 800 g of active material per hectare; evaluated 2 weeks after treatment
Outline: as §1

[33] = system: Zea mays; assay: Herbicidal activity, postemergence test; settings: post; sprayed onto seedling plants, 800 g of active material per hectare; evaluated 2 weeks after treatment
Outline: as §1

[34] = system: Glycine max; assay: Herbicidal activity, postemergence test; settings: post; sprayed onto seedling plants, 800 g of active material per hectare; evaluated 2 weeks after treatment
Outline: as §1

[35] = system: Gossypium hirsutum; assay: Herbicidal activity, postemergence test; settings: post; sprayed onto seedling plants, 800 g of active material per hectare; evaluated 2 weeks after treatment
Outline: as §1

[36] = system: Hordeum vulgare; assay: Herbicidal activity, postemergence test; settings: post; sprayed onto seedling plants, 800 g of active material per hectare; evaluated 2 weeks after treatment
Outline: as §1

C[C@H](NC(=O)c1nnc(-c2ccccc2)o1)c1ccccc1 [Example 4]
LAMPU control rating (0-9) [1]: 3 (moderate effect)
GALAP control rating (0-9) [2]: 0 (no effect)
ABUTH control rating (0-9) [3]: 1 (trace effect)
ALOMY control rating (0-9) [4]: 0 (no effect)
VIOAR control rating (0-9) [5]: 6 (herbicidal effect)
SETVI control rating (0-9) [6]: 4 (injury)
TRZAW control rating (0-9) [7]: 0 (no effect)
IPOHE control rating (0-9) [8]: 0 (no effect)
ECHCG control rating (0-9) [9]: 4 (injury)
AMARE control rating (0-9) [10]: 8 (approaching complete kill)
STEME control rating (0-9) [11]: 6 (herbicidal effect)
AMBEL control rating (0-9) [12]: 0 (no effect)
VERPE control rating (0-9) [13]: 6 (herbicidal effect)
HELAN control rating (0-9) [14]: 0 (no effect)
ZEAMX control rating (0-9) [15]: 1 (trace effect)
GLXMA control rating (0-9) [16]: 0 (no effect)
GOSHI control rating (0-9) [17]: 0 (no effect)
HORVW control rating (0-9) [18]: 0 (no effect)
LAMPU control rating (0-9) [19]: 6 (herbicidal effect)
GALAP control rating (0-9) [20]: 8 (approaching complete kill)
ABUTH control rating (0-9) [21]: 9 (complete kill)
ALOMY control rating (0-9) [22]: 4 (injury)
VIOAR control rating (0-9) [23]: 7 (good herbicidal effect)
SETVI control rating (0-9) [24]: 8 (approaching complete kill)
TRZAW control rating (0-9) [25]: 4 (injury)
IPOHE control rating (0-9) [26]: 9 (complete kill)
ECHCG control rating (0-9) [27]: 5 (definite injury)
AMARE control rating (0-9) [28]: 9 (complete kill)
STEME control rating (0-9) [29]: 9 (complete kill)
AMBEL control rating (0-9) [30]: 9 (complete kill)
VERPE control rating (0-9) [31]: 9 (complete kill)
HELAN control rating (0-9) [32]: 9 (complete kill)
ZEAMX control rating (0-9) [33]: 3 (moderate effect)
GLXMA control rating (0-9) [34]: 8 (approaching complete kill)
GOSHI control rating (0-9) [35]: 9 (complete kill)
HORVW control rating (0-9) [36]: 5 (definite injury)
